Values after ≈ are worked out from the molar mass of the structure shown. Active and inactive are the calls of the source. No cut-off for these calls is given here.
Columns and labels:
[1] = system: Pseudomonas aeruginosa; assay: Antibacterial activity against Pseudomonas aeruginosa after 24 hrs by two-fold broth microdilution method; type: functional
[2] = system: Escherichia coli; assay: Antibacterial activity against Escherichia coli TG1; type: functional
[3] = system: Pseudomonas aeruginosa; assay: Bactericidal activity against Pseudomonas aeruginosa; type: functional
[4] = system: Pseudomonas aeruginosa; assay: Antibacterial activity against Pseudomonas aeruginosa YM64 expressing mexAB-oprM::FRT/mexXY::FRT/mexCD-oprJ::FRT/mexEF-oprN::FRT deletion mutant; type: functional
[5] = system: Pseudomonas aeruginosa; assay: Antibacterial activity against wild-type Pseudomonas aeruginosa YM; type: functional
[6] = system: Pseudomonas aeruginosa; assay: Antibacterial activity against ticarcillin-resistant Pseudomonas aeruginosa clinical isolate PA08; type: functional
[7] = system: Pseudomonas aeruginosa; assay: Antibacterial activity against ticarcillin-resistant Pseudomonas aeruginosa clinical isolate PA53; type: functional
[8] = system: Pseudomonas aeruginosa; assay: Antibacterial activity against ticarcillin-resistant Pseudomonas aeruginosa clinical isolate PA129; type: functional
[9] = system: Pseudomonas aeruginosa; assay: Antibacterial activity against ticarcillin/piperacillin-resistant Pseudomonas aeruginosa clinical isolate PA346; type: functional
[10] = system: Pseudomonas aeruginosa; assay: Antibacterial activity against ticarcillin-resistant Pseudomonas aeruginosa clinical isolate PA424; type: functional
[11] = system: Pseudomonas aeruginosa; assay: Antibacterial activity against ticarcillin/cefepime-resistant Pseudomonas aeruginosa clinical isolate PA1250; type: functional
[12] = system: Pseudomonas aeruginosa; assay: Antibacterial activity against ticarcillin/piperacillin/ceftazidime/cefepime-resistant Pseudomonas aeruginosa clinical isolate PA1255; type: functional
[13] = system: Pseudomonas aeruginosa; assay: Antibacterial activity against Pseudomonas aeruginosa clinical isolate PA1256; type: functional
[14] = system: Pseudomonas aeruginosa; assay: Antibacterial activity against Pseudomonas aeruginosa clinical isolate PA1270; type: functional
[15] = system: Pseudomonas aeruginosa; assay: Antibacterial activity against ticarcillin-resistant Pseudomonas aeruginosa clinical isolate PA1271; type: functional
[16] = system: Pseudomonas aeruginosa; assay: Antibacterial activity against Pseudomonas aeruginosa PA14; type: functional
[17] = system: Staphylococcus aureus; assay: Antibacterial activity against Staphylococcus aureus SH1000; type: functional
[18] = system: Staphylococcus epidermidis; assay: Antibacterial activity against Staphylococcus epidermidis RP62A; type: functional
[19] = system: Porphyromonas gingivalis; assay: Antibacterial activity against Porphyromonas gingivalis ATCC 33277; type: functional
[20] = system: Pseudomonas aeruginosa; assay: Antibiofilm activity against Pseudomonas aeruginosa PA14 after 24 hrs; type: functional
[21] = system: Escherichia coli; assay: Antibiofilm activity against Escherichia coli TG1 after 24 hrs; type: functional
[22] = system: Staphylococcus aureus; assay: Antibiofilm activity against Staphylococcus aureus SH1000 after 24 hrs; type: functional
[23] = system: Staphylococcus epidermidis; assay: Antibiofilm activity against Staphylococcus epidermidis RP62A after 72 hrs; type: functional
[24] = system: Porphyromonas gingivalis; assay: Antibiofilm activity against Porphyromonas gingivalis ATCC 33277 after 72 hrs; type: functional
[25] = system: Pseudomonas aeruginosa; assay: Antibiofilm activity against Pseudomonas aeruginosa on smooth titanium disc at 3.7 ug/ml after 19 hrs by confocal laser scanning microscopy; type: functional, organism-based
[26] = system: Pseudomonas aeruginosa; assay: Antibiofilm activity against Pseudomonas aeruginosa on smooth titanium disc assessed as reduction in total area fraction at 1 to 12 ug/ml after 19 hrs by confocal laser scanning microscopy; type: functional
[27] = system: Pseudomonas aeruginosa; assay: Antibiofilm activity against Pseudomonas aeruginosa on smooth titanium disc assessed as dead cells in biofilm at 12 ug/ml after 19 hrs by confocal laser scanning microscopy relative to control; type: functional, organism-based
[28] = system: Pseudomonas aeruginosa; assay: Antibiofilm activity against Pseudomonas aeruginosa assessed as decrease of culturable cells in biofilm at >= 4.63 ug/ml after 24 hrs by plate counting method; type: functional, organism-based
[29] = Cytotoxicity against human osteoblasts assessed as cell viability at 4.63 ug/ml after 2 hrs; type: cell-based, Osteoblast; settings: read-out: Activity
[30] = Cytotoxicity against human mesenchymal stem cells assessed as cell viability at 4.63 ug/ml after 2 hrs; type: cell-based; settings: read-out: Activity
[31] = Cytotoxicity against human endothelial cells at 4.63 ug/ml after 2 hrs; type: cell-based; settings: endothelial cell
[32] = Cytotoxicity against human endothelial cells assessed as effect on tube formation at 4.63 ug/ml after 4 hrs; type: cell-based; settings: endothelial cell

CN(CCO)CC(O)Cn1c2ccc(Cl)cc2c2cc(Cl)ccc21 (stereo not drawn)
MIC [1]: 18.5 µg/mL (≈ 50.4 µM)

CC1COc2c(N3CCN(C)CC3)c(F)cc3c(=O)c(C(=O)O)cn1c23 (stereo not drawn) [OFLOXACIN]
MIC [2]: 0.1 µg/mL (≈ 0.277 µM)

CCC(C)NCC(O)Cn1c2ccc(Cl)cc2c2cc(Cl)ccc21 (stereo not drawn)
MIC [1]: 18.5 µg/mL (≈ 50.6 µM)
MBC [3]: 18.5 µg/mL (≈ 50.6 µM)
MIC [4]: 4.63 µg/mL (≈ 12.7 µM)
MIC [5]: 18.5 µg/mL (≈ 50.6 µM)
MIC [6]: 18.5 µg/mL (≈ 50.6 µM)
MIC [7]: 18.5 µg/mL (≈ 50.6 µM)
MIC [8]: 18.5 µg/mL (≈ 50.6 µM)
MIC [9]: 18.5 µg/mL (≈ 50.6 µM)
MIC [10]: 18.5 µg/mL (≈ 50.6 µM)
MIC [11]: 18.5 µg/mL (≈ 50.6 µM)
MIC [12]: 18.5 µg/mL (≈ 50.6 µM)
MIC [13]: 9.25 µg/mL (≈ 25.3 µM)
MIC [14]: 18.5 µg/mL (≈ 50.6 µM)
MIC [15]: 18.5 µg/mL (≈ 50.6 µM)
MIC [16]: 18.5 µg/mL (≈ 50.6 µM)
MIC [2]: 4.63 µg/mL (≈ 12.7 µM)
MIC [17]: 9.25 µg/mL (≈ 25.3 µM)
MIC [18]: 9.25 µg/mL (≈ 25.3 µM)
MIC [19]: 4.63 µg/mL (≈ 12.7 µM)
MBIC [20]: 18.5 µg/mL
MBIC90 [21]: 2.22 µg/mL
MBIC [22]: 9.25 µg/mL
MBIC [23]: 9.25 µg/mL
MBIC [24]: 5.11 µg/mL
Activity [25]: Active
inhibition (INH) [26]: 50%
Activity [27]: Active
Activity [28]: Active
viability at 2 h, 4.63 ug/ml [29]: > 80%
viability at 2 h, 4.63 ug/ml [30]: > 80%
Activity [31]: Toxic
Activity [32]: Non-toxic

GENTAMICIN
MIC [17]: 12.5 µg/mL

N=C(NCCCCCCNC(=N)NC(=N)Nc1ccc(Cl)cc1)NC(=N)Nc1ccc(Cl)cc1 [CHLORHEXIDINE]
MIC [19]: 4 µg/mL (≈ 7.91 µM)

O=C(O)c1cn(C2CC2)c2cc(N3CCNCC3)c(F)cc2c1=O [CIPROFLOXACIN]
MIC [18]: 1.56 µg/mL (≈ 4.71 µM)

CN(C)CC(O)Cn1c2ccc(Br)cc2c2cc(Br)ccc21 (stereo not drawn)
MIC [1]: 18.5 µg/mL (≈ 43.4 µM)

CCN(CC)CC(O)Cn1c2ccc(Cl)cc2c2cc(Cl)ccc21 (stereo not drawn)
MIC [1]: 37 µg/mL (≈ 101 µM)

OC(CNCC1CCCO1)Cn1c2ccc(Cl)cc2c2cc(Cl)ccc21 (stereo not drawn)
MIC [1]: 18.5 µg/mL (≈ 47 µM)

OC(CN1CCCCC1)Cn1c2ccc(Cl)cc2c2cc(Cl)ccc21 (stereo not drawn)
MIC [1]: 74 µg/mL (≈ 196 µM)

OCCn1c2ccccc2c2cc(Cl)ccc21
MIC [1]: 18.5 µg/mL (≈ 75.3 µM)

OCCN(CCO)CC(O)Cn1c2ccc(Cl)cc2c2cc(Cl)ccc21 (stereo not drawn)
MIC [1]: > 74 µg/mL

Source: ChEMBL document CHEMBL3352500, “Identification and characterization of an anti-pseudomonal dichlorocarbazol derivative displaying anti-biofilm activity” (Bioorg Med Chem Lett, 2014)
